Results from patent US6451576B1, “Sesquiterpene synthases from grand fir (Abies grandis), and methods of use” (Washington State University Research Foundation, priority 1998, dated 2002).

Assays:
[1] = target: T1, γ-Humulene Synthase (ag5) (SEQ ID No: 24) (Abies grandis, UniProt O64405); assay: Product profile of recombinant γ-humulene synthase in vitro (preparative assay, GLC-MS); assay type: biochemical; details: from [1-3H]farnesyl diphosphate; total ion current chromatogram
T1 construct: For further subcloning of the amplified, full-length cDNA into the pSBETa vector for high-level expression, the pGAG5 insert was amplified; made in house; host or cells: E. coli XL1-Blue/pGAG5 or E. coli BL21(DE3)/pSBAG5
T1 sequence (O64405 1-593): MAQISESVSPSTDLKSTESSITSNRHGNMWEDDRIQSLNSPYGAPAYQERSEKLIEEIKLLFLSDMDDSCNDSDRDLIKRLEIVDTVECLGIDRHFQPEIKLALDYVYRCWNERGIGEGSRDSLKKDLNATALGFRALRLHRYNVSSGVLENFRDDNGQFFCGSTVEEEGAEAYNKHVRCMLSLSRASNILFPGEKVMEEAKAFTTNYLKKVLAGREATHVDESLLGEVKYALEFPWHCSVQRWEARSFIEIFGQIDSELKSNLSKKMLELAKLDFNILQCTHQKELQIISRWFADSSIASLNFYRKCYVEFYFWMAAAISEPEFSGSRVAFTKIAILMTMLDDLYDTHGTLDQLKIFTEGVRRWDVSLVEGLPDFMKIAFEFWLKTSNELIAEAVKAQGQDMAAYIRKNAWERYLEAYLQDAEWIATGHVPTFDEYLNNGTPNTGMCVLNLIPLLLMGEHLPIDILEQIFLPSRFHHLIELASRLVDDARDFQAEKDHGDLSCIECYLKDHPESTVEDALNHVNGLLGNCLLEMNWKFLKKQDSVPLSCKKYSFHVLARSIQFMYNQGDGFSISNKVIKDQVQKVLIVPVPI
Procedure: (§1) For preparative incubations, the assay was scaled to 5 ml containing the total protein extracted from 100 ml of bacterial culture and 30 μM [1-^3H]farnesyl diphosphate, and the incubation time was extended to 8 h. Aliquots of the olefin fraction and the fraction containing oxygenated metabolites (diethyl ether eluate) were evaluated by liquid scintillation counting, and were analyzed by radio-GLC (Croteau, R. & Cane. D. E. (1985) Methods Enzymol. 110, 383-405; Satterwhite, D. M. & Croteau, R. (1988) J. Chromatogr. 452, 61-73) using a Gow-Mac 550P chromatograph that was equipped with a 3.18 mm×3.66 m stainless steel column packed with 5% OV17 (50% phenyl:50% methylsiloxane) on 100/120 mesh Gas Chrom Q (Alltech) and programmed from 150° C. to 220° C. at 2° C./min with He as carrier. The elution of co-injected standards was monitored with the Gow-Mac thermal conductivity detector (250° C. and 150 mA) and the radioactivity signal was continuously monitored with a Nuclear Chicago Model 8731 gas proportional counter; output data were processed using Perkin-Elmer Turbochrom Software.
(§2) Expression of Sesquiterpene Synthase cDNAs AG4 (SEQ ID No:19) and AG5. (SEQ ID No:23) in E. coli. Both putative sesquiterpene cyclase cDNAs (SEQ ID Nos:19 and 23) were expressed in bacterial strains E. coli XL1-Blue/pGAG4, E. coli XL1-Blue/pGAG5, E. coli BL21(DE3)/pSBAG4, and E. coli BL21(DE3)/pSBAG5 as set forth in EXAMPLE 7. Bacteria were grown to A600=0.5 at 37° C. in 5 ml or 100 ml of LB medium supplemented with 100 μg ampicillin/ml or 30 μg kanamycin/ml as determined by the vector. Cultures were then induced by addition of 1 mM isopropyl-1-thio-β-D-galactopyranoside and grown for another 12 h at 20° C. Cells were harvested by centrifugation (2000×g, 10 min) and resuspended in either 1 ml or 5 ml sesquiterpene synthase assay buffer (EXAMPLE 2). Cells were disrupted by sonication (Braun-Sonic 2000 with microprobe at maximum power for 15 seconds at 0-4° C.) and the homogenates were cleared by centrifugation (18,000×g, 10 min). Preparative assays were employed to generate product for GLC-MS analysis, as set forth in EXAMPLE 2, with quantification of composition via the total ion current chromatogram.
Product Profile of Recombinant γ-Humulene Synthase (SEQ ID No:24) In Vitro.

[2] = target: T2, δ-Selinene Synthase (ag4) (SEQ ID No. 20) (Abies grandis, UniProt O64404); assay: Product profile of recombinant δ-selinene synthase in vitro (preparative assay, GLC-MS); assay type: biochemical; details: from [1-3H]farnesyl diphosphate; total ion current chromatogram
T2 construct: made in house; host or cells: E. coli XL1-Blue/pGAG4 or E. coli BL21(DE3)/pSBAG4
T2 sequence (O64404 1-581): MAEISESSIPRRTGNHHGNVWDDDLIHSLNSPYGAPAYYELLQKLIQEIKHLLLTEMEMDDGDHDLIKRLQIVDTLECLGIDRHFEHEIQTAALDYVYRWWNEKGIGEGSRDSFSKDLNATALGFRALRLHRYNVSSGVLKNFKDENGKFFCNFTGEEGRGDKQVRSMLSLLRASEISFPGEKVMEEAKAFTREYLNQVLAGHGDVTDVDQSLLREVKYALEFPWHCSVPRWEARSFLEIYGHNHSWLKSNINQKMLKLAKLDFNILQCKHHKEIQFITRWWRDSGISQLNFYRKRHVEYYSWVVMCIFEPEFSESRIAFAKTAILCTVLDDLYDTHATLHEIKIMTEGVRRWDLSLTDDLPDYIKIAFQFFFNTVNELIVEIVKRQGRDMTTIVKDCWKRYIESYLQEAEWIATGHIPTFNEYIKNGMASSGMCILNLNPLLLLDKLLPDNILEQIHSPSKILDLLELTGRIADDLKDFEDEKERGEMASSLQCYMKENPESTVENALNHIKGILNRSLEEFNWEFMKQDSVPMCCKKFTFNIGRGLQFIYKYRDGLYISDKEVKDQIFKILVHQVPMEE
Procedure: as §1, §2
Product Profile of Recombinant δ-Selinene Synthase (SEQ ID No:20) In Vitro.

| SMILES | sesquiterpene products of γ-humulene synthase, % [1] [%] | sesquiterpene products of δ-selinene synthase, % [2] [%] |
| --- | --- | --- |
| C=C1[C@@H]2CC[C@H]3[C@@H]2[C@@H](C(C)C)CC[C@@]13C [Sativene] | 3.1 |  |
| CC1(C)CCC[C@@]2(C)[C@@H]3CC4C([C@@H]31)C42C [Longicyclene] | 0.2 |  |
| C=C1CCC2C3C(C(C)C)CCC2(C)C13 (stereo not drawn) [β-Ylangene] | 0.3 |  |
| C=C(C)[C@@H]1CC[C@@]2(C)CCC=C(C)[C@@H]2C1 [α-Selinene] |  | 1.7 |
| C/C1=C\C=C(\C(C)C)CC/C(C)=C/CC1 [Germacrene C] |  | 3.4 |
| CC1=C[C@H]2[C@@H](CC1)C(C)=CCCC2(C)C [γ-Himachalene] | 5.8 |  |
| C=C(C)[C@@H]1C/C=C(\C)CC/C=C(\C)CC1 [Germacrene A] |  | 6.7 |
| CC1CCC=C2CCC3C(C3(C)C)C21C (stereo not drawn) [β-Gurjunene] | 2.0 |  |
| CC1=CC[C@@H]2[C@@H]3[C@H]1[C@@]2(C)CCCC3(C)C [α-Longipinene] | 3.4 |  |
| CC1=CCCC(C)=CCCC(C)=CCC1 [1,5,9-trimethylcyclododeca-1,5,9-triene (tent. 2 isomers), 1,5,9-trimethylcyclododeca-1,5,9-triene] | 0.2 |  |
| CC(C)=CCC/C(C)=C1/CC=C(C)CC1 [γ-Bisabolene] | 1.9 |  |
| CC1=C[C@@H]2[C@@H](CC1)C(C)=CC[C@H]2C(C)C [α-Cadinene] |  | 0.2 |
| CC(C)=CC/C=C(/C)C1CC=C(C)CC1 (stereo not drawn) [E-α-Bisabolene] | 0.9 |  |
| C=CC(=C)CC/C=C(\C)CCC=C(C)C [E-β-Farnesene] | 1.3 |  |
| CC1=C[C@@H]2C(=C(C)CC[C@H]2C(C)C)CC1 [δ-Cadinene] |  | 1.4 |
| C=C1CC[C@@]23[C@@H]([C@@H]12)[C@H](C(C)C)CC[C@H]3C [β-Cubebene] | 0.1 |  |
| CC(C)=C1C/C=C(\C)CC/C=C(\C)CC1 [E,E-Germacrene B] |  | 17.4 |
| C=C1/C=C/[C@H](C(C)C)CC/C(C)=C/CC1 [Germacrene D] |  | 0.8 |
| CC1=CCC(C(C)C)=C[C@@H]2[C@H](C)CC[C@H]12 [Guaia-6,9-diene] |  | 9.7 |
| C=C1C=CC(C)(C)CCCC(C)=CCC1 [γ-Humulene] | 28.6 |  |
| CC1=C[C@H]2C(=C(C)CCCC2(C)C)CC1 [β-Himachalene] | 7.2 |  |
| C=C1CCC2C3C1C2(C)CCCC3(C)C (stereo not drawn) [β-Longipinene] | 1.5 |  |
| C=C(C)[C@@H]1CC[C@H](C)C2=C(C1)[C@@H](C)CC2 [α-Guiaene] |  | 0.2 |
| CC1=CCCC2(C)CCC(=C(C)C)CC12 (centres unmarked) [Seli-3,7(11)-diene] |  | 1.2 |
| CC(C)C1CCC2(C)C3CC4C(C13)C42C (centres unmarked) [Cyclosativene] | <0.1 |  |
| C=C1[C@H]2CC[C@@H]3[C@H]2C(C)(C)CCC[C@]13C [Longifolene] | 11.8 |  |
| C=C1CCCC(C)(C)[C@H]2C=C(C)CC[C@@H]12 [α-Himachalene] | 4.8 |  |
| C/C1=C\CC/C(C)=C/CC(C)(C)/C=C/C1 [α-Humulene] |  | 0.7 |
| CC1=CC[C@@]23[C@@H]([C@@H]12)[C@H](C(C)C)CC[C@H]3C [α-Cubebene] | 0.1 |  |
